Publication PMC5845004, “Novel (p)ppGpp Binding and Metabolizing Proteins of Escherichia coli” (mBio, 2018)
Values joined by “and” are separate entries in the source; they are usually repeats but may differ in a detail not shown here. Equal values may be shown once. “Also recorded” adds a separate entry of the source. Read-outs that look alike come from different tables or passages of the source.

Key:
Der = Der (Escherichia coli, UniProt P0A6P5); assay: DRaCALA Kd determination, purified Der; format: binding, E. coli; settings: 2 nM 32P-labeled ligand, read-out: apparent Kd, Der
Chain of Der (P0A6P5 whole entry): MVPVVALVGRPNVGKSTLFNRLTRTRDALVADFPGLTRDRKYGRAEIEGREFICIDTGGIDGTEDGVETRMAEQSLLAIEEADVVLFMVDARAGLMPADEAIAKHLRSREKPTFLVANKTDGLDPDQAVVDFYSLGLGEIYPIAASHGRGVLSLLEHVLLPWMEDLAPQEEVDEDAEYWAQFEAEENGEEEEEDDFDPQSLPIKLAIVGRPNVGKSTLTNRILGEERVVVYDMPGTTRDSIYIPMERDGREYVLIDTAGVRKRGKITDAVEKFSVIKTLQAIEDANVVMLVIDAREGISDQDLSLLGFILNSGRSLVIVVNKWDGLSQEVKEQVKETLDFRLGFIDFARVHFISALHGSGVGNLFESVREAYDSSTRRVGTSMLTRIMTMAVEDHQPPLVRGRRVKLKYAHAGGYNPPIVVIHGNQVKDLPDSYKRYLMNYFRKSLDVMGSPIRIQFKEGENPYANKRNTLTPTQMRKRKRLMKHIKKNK
Protocol: (§1) For Kd measurements by DRaCALA, 2-fold serial dilutions from the highest possible concentrations of each purified protein were prepared in binding buffer B, and approximately 2 nM concentrations of α-^32P-labeled ppGpp, pppGpp, GTP, and GDP were added. The mixtures were incubated for 5 min at RT before spotting of 2 µl of the reaction mixtures onto nitrocellulose membranes. […] For competition assays, purified proteins at the specified concentrations were incubated with 2 nM [α-^32P]ppGpp or [α-^32P]pppGpp in the presence of 100 μM competitor nucleotides in binding buffer B. The reaction mixtures were incubated for 5 min at RT, 2 µl was spotted onto nitrocellulose membranes, and the values corresponding to the bound fractions were determined. EDTA was added at excess concentrations as specified for each case.

TrmE = TrmE (Escherichia coli, UniProt P25522); assay: DRaCALA Kd determination, purified TrmE; format: binding, E. coli; settings: in the presence of magnesium, read-out: apparent Kd, TrmE
Chain of TrmE (P25522 whole entry, the tested form may be a part): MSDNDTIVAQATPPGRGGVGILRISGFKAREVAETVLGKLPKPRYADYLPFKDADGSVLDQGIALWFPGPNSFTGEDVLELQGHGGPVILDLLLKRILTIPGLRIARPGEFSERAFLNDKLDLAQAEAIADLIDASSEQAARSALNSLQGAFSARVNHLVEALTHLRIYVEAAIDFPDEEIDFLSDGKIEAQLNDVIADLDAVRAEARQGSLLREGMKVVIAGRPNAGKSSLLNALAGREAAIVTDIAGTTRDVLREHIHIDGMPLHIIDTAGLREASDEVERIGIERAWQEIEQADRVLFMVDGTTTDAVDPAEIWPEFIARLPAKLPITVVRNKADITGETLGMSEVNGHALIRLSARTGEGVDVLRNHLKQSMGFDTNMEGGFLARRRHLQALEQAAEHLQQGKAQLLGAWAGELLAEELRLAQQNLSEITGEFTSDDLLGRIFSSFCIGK
Protocol: as §1

[1] = molecular target: DerG1 (residues 2 to 184) (Escherichia coli, UniProt P0A6P5); assay: DRaCALA Kd determination, Der G1 domain; format: binding, E. coli; settings: 2 nM 32P-labeled ligand, read-out: apparent Kd, DerG1
Chain of DerG1 (residues 2 to 184) (P0A6P5 2-184): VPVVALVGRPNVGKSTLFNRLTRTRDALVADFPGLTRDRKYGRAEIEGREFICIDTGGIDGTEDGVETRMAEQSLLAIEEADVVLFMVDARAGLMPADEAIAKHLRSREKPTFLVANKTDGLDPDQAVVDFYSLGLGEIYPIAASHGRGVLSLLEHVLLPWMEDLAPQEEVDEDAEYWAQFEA
Protocol: For Kd measurements by DRaCALA, 2-fold serial dilutions from the highest possible concentrations of each purified protein were prepared in binding buffer B, and approximately 2 nM concentrations of α-^32P-labeled ppGpp, pppGpp, GTP, and GDP were added. The mixtures were incubated for 5 min at RT before spotting of 2 µl of the reaction mixtures onto nitrocellulose membranes. The fractions of bound ligand and the apparent Kd values were calculated as previously described ([37]). For competition assays, purified proteins at the specified concentrations were incubated with 2 nM [α-^32P]ppGpp or [α-^32P]pppGpp in the presence of 100 μM competitor nucleotides in binding buffer B. The reaction mixtures were incubated for 5 min at RT, 2 µl was spotted onto nitrocellulose membranes, and the values corresponding to the bound fractions were determined. EDTA was added at excess concentrations as specified for each case.

YgdH = YgdH (Escherichia coli, UniProt P0ADR8); assay: DRaCALA binding and Kd determination, purified YgdH; parameters: species or system E. coli; settings: DRaCALA
Chain of YgdH (P0ADR8 whole entry): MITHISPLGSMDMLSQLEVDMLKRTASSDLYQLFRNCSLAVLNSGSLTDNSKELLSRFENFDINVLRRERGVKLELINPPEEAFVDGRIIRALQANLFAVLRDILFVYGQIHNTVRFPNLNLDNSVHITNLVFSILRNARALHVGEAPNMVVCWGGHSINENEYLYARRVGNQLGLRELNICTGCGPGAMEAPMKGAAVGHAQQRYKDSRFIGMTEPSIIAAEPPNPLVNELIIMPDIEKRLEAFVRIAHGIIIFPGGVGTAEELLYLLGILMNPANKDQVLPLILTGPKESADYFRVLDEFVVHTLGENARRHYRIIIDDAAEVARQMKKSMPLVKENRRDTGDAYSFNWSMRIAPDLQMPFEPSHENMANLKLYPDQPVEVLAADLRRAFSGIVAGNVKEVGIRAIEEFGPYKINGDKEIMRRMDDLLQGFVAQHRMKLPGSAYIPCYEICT
Protocol: as §1

Gpt = Gpt (Escherichia coli, UniProt P0A9M5); assay: DRaCALA Kd determination, purified Gpt; format: binding, E. coli; settings: 2 nM 32P-labeled ligand, read-out: apparent Kd, Gpt
Chain of Gpt (P0A9M5 whole entry): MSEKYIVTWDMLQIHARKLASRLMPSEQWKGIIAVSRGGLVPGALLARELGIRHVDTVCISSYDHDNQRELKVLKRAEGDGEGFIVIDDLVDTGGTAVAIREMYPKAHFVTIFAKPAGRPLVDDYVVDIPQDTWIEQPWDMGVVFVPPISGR
Protocol: (§2) For Kd measurements by DRaCALA, 2-fold serial dilutions from the highest possible concentrations of each purified protein were prepared in binding buffer B, and approximately 2 nM concentrations of α-^32P-labeled ppGpp, pppGpp, GTP, and GDP were added. The mixtures were incubated for 5 min at RT before spotting of 2 µl of the reaction mixtures onto nitrocellulose membranes. The fractions of bound ligand and the apparent Kd values were calculated as previously described ([37]).

RF3 (PrfC) = RF3 (PrfC) (Escherichia coli, UniProt P0A7I4); assay: DRaCALA Kd determination, purified RF3; format: binding, E. coli; settings: 2 nM 32P-labeled ligand, read-out: apparent Kd, RF3 (PrfC)
Chain of RF3 (PrfC) (P0A7I4 whole entry): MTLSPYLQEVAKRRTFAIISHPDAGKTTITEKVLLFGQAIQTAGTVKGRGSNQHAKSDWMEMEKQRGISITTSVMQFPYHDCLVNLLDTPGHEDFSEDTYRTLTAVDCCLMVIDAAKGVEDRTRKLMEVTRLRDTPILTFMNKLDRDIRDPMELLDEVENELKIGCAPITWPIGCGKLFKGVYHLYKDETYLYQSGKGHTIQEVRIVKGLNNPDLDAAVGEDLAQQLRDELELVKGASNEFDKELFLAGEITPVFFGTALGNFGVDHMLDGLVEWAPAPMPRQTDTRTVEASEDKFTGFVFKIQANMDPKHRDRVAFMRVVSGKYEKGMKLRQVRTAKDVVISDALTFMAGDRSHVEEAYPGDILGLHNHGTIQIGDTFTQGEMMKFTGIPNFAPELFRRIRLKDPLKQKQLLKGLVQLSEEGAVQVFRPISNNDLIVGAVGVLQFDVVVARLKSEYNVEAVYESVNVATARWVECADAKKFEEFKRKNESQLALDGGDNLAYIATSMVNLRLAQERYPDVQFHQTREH
Protocol: as §2

NudG = molecular target: T1, NudG (Escherichia coli, UniProt P77788); assay: In vitro cleavage assay (TLC), NudG; format: biochemical, E. coli; settings: purified NudG, buffer B with 10 mM MgCl2, TLC
T1 construct: expressed in transfected cells; host or cells: E. coli ASKA collection strain, IPTG-induced, whole-cell lysate
T1 sequence (P77788 whole entry): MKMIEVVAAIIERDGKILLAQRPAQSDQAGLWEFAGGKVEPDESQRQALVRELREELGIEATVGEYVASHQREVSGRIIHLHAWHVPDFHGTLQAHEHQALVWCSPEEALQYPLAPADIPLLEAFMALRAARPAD
Protocol: The purified His6-MutT and His6-NudG proteins were tested for their relative levels of cleavage of ppGpp compared to those seen with their native substrates. For this, a 1 μM concentration of each protein and a 10 nM concentration of [α-^32P]ppGpp were used together with 100 μM concentrations of cold competitors [ppGpp, GTP, ATP, 8-oxo-(d)GTP, 2-hydroxyl-(d)ATP] or 50 mM EDTA in buffer B. The samples were incubated at 30°C for 10 min and for 1 h before the reactions were stopped by adding 50 mM EDTA. The cleavage products were resolved by TLC as described above. The purified His6-NadR and His6-TrmE proteins were tested for their cleavage of both GTP and ppGpp. For cleavage of GTP, 10 μM concentrations of His6-MBP, His6-TrmE, and 20 μM His6-NadR proteins were used with 2 nM [α-^32P]GTP and 100 μM cold GTP in buffer B. For cleavage of ppGpp, 10 μM concentrations of His6-TrmE, His6-MBP, and His6-NadR proteins were used with 10 nM [α-^32P]ppGpp in buffer B. Of note, for His6-TrmE, another reaction was also performed in buffer B supplemented with 100 mM KCl. The reactions were performed at RT for 10 min and were stopped by adding 17% formic acid. The cleavage products were resolved by TLC as described above.
A 20 μM concentration of each of purified proteins MutT, NudG, NadR, TrmE, and MBP (as a negative control) was incubated with 100 μM ppGpp in buffer B (containing 40 mM Tris [pH 7.5], 100 mM NaCl, and 10 mM MgCl2) for 20 min at room temperature. Samples were snap-frozen on dry ice and analyzed with UPLC-MS afterward. All samples and buffers were stored at −80°C, thawed on ice, and kept at 4°C during analysis. For the analysis, a UPLC-quadrupole time of flight (UPLC-qTOF) method (Waters) was used. Analysis conditions were as follows: column, zic-HILIC (Merck Millipore) (150 by 2.1 mm, […], gradient elution, flow rate set to 0.3 ml/min); mobile phase A, 10 mM ammonium acetate (pH 5); mobile phase B, 90% acetonitrile with 10 mM ammonium acetate (pH 5). The gradient was set up as follows: min 0 to 2, 80% B; min 2 to 16, 80% B to 50% B; hold until min 20; injection volume, 4 µl. The detection conditions were as follows: photodiode array detector (PDA), […] (evaluated at 260 nm); MS, ionization; electrospray ionization (ESI+), scan, 200 to 800 m/z with lock mass correction. Analytes were identified by their accurate mass and retention time data for a known standard dissolved in used buffer (for the chemicals of the same nominal masses). These standards were either synthesized and their structures confirmed by nuclear magnetic resonance (NMR) (for ppGp, pGpp, and pGp) or purchased (ppGpp was purchased from Jena Biocsience and GTP from Sigma-Aldrich).

Era = Era (Escherichia coli, UniProt P06616); assay: DRaCALA Kd determination, purified Era; format: binding, E. coli; settings: 2 nM 32P-labeled ligand, read-out: apparent Kd, Era (converted)
Chain of Era (P06616 whole entry): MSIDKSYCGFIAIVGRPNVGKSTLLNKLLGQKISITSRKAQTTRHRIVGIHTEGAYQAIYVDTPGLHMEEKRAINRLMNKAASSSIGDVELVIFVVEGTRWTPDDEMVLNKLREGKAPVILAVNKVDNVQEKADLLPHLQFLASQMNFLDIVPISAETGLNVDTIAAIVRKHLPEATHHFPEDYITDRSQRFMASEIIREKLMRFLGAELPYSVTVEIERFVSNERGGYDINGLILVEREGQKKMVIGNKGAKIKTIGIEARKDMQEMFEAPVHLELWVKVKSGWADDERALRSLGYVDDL
Protocol: as §2

ObgE = ObgE (Escherichia coli, UniProt P42641); assay: DRaCALA Kd determination, purified ObgE; format: binding, E. coli; settings: 2 nM 32P-labeled ligand, read-out: apparent Kd, ObgE (converted)
Chain of ObgE (P42641 whole entry): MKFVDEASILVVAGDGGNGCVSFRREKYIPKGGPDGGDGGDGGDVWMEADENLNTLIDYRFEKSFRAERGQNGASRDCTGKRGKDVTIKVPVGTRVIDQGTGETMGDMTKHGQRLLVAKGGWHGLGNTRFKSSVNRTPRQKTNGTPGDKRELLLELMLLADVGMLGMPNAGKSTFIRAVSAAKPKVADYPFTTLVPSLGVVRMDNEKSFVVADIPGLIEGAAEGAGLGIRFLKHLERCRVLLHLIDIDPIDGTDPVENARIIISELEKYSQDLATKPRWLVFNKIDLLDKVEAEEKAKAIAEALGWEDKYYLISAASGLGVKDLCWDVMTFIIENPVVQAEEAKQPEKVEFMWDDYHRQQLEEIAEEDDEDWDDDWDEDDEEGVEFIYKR
Protocol: as §2

HflX = molecular target: HflX; parameters: method as in Table S1 (4); settings: ref Table S1 (4); read-out: Kd, S. aureus HflX (converted); cited from earlier work
HypB = HypB (Escherichia coli, UniProt P0AAN3); assay: DRaCALA Kd determination, purified HypB; format: binding, E. coli; settings: 2 nM 32P-labeled ligand, read-out: apparent Kd, HypB
Chain of HypB (P0AAN3 whole entry): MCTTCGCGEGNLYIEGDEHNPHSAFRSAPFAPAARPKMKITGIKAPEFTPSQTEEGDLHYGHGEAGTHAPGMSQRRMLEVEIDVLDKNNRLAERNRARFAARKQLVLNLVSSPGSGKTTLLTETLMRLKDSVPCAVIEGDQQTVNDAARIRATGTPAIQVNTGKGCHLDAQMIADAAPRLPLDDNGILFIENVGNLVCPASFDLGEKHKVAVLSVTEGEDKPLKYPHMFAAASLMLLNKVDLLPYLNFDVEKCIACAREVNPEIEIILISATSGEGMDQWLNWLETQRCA
Protocol: as §1

PPX = molecular target: PPX; parameters: method as in ref 35 (Table S1 ref 20); settings: competitive; ref 35 (Table S1 ref 20); read-out: inhibitory constant Ki, PPX; cited from earlier work
[2] = in the presence of EDTA (without Mg2+), read-out: Kd, YgdH + EDTA (converted)
[3] = with 1.5 mM Mg2+, read-out: apparent Kd, YgdH + 1.5 mM Mg2+

| Compound | Kd (Der) | Kd (TrmE) | Kd [1] | Kd (YgdH; [2]) | Kd (YgdH; [3]) | Kd (Gpt) | Kd (RF3 (PrfC)) | cleavage by NudG (NudG) | Kd (Era) | Kd (ObgE) | Kd (HflX) | Kd (HypB) | Ki (PPX) |
| --- | --- | --- | --- | --- | --- | --- | --- | --- | --- | --- | --- | --- | --- |
| Nc1nc2c(ncn2[C@@H]2O[C@H](COP(=O)(O)OP(=O)(O)O)[C@@H](OP(=O)(O)OP(=O)(O)O)[C@H]2O)c(=O)[nH]1 [ppGpp, guanosine tetraphosphate] | 1.8 µM and 1.77 µM | 1.7 ± 0.5 µM | 5.9 ± 2.5 µM | 4 ± 0.5 µM | 24.4 ± 4.7 µM | 5.2 ± 0.9 µM | 0.82 ± 0.09 µM | degraded into smaller products; also recorded: relatively weak ppGpp cleavage activity | 4.3 ± 0.6 µM | 1.8 ± 0.3 µM | 0.87 ± 0.15 µM | 12.4 ± 3 µM | 200 µM |
| Nc1nc2c(ncn2[C@@H]2O[C@H](COP(=O)(O)OP(=O)(O)OP(=O)(O)O)[C@@H](OP(=O)(O)OP(=O)(O)O)[C@H]2O)c(=O)[nH]1 [pppGpp, guanosine pentaphosphate] | 6.9 ± 2.9 µM | 2.2 ± 0.9 µM | 4.7 ± 2.3 µM | 1.6 µM and 1.59 µM | 37.2 ± 6.5 µM | 6.7 ± 0.9 µM | 15 ± 5 µM | degraded into smaller products | 21.4 µM | 6.6 µM | 13.6 µM | 14.8 ± 5.1 µM | 10 µM |
